Consider 21 compounds from patent US8134015B2, “Compound inhibiting in vivo phosphorous transport and medicine containing the same” (Kyowa Hakko Kirin Co., Ltd., priority 2003, dated 2012).

The first experiment addresses T1, rat NaPi-2b (Rattus norvegicus, UniProt Q9JJ09).
T1 construct: expressed in transfected cells; host or cells: Xenopus oocytes injected with cRNA
T1 sequence (Q9JJ09 1-695): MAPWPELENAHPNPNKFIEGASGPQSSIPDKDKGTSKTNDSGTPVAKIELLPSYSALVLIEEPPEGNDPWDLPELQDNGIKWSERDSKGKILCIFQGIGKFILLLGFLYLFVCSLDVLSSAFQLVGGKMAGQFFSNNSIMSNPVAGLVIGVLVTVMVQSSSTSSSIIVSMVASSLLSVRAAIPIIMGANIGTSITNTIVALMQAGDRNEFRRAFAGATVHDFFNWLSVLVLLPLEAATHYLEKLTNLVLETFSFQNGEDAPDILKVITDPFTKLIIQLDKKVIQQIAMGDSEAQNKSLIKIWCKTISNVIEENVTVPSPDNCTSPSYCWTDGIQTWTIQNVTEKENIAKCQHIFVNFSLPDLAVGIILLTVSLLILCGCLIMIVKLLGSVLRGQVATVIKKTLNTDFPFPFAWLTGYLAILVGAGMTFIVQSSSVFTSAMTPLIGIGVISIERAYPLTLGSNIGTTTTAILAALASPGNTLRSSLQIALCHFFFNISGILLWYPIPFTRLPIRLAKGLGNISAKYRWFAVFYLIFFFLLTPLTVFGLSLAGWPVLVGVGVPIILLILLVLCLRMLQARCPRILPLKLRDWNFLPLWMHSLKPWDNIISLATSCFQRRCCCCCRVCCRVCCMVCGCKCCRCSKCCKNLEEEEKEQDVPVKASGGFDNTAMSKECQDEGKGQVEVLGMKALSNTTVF
Description: Sodium-dependent phosphate uptake of Xenopus oocytes which expressed NaPi-2b (32P). Type of experiment: cell-based. Conditions: Xenopus oocytes expressing rat NaPi-2b, 32P radioactive phosphorus; read-out: IC50 (phosphate uptake inhibitory activity). Summed up: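 Rat small-intestine NaPi-2b cRNA injected into Xenopus oocytes, expressed for 2 days. Sodium-dependent phosphate uptake measured with 32P; % inhibition at 300 and 100 μM taken from the same inhibition curve.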
Usually IC50 stands for the concentration at which inhibition is half-maximal. As to `COc1cccc(/C=N/NC(=O)c2cc(Cl)ccc2NC(=O)c2cccc(CN(CCO)CCO)c2)c1` [Compound 408, 3-{[Bis-(2-hydroxy-ethyl)-amino]-methyl}-N-[4-chloro-2-(3-methoxy-benzylidene-hydrazinocarbonyl)-phenyl]-benzamide], the IC50 worked out at 0.69 µM.

In the case of `Cc1ccc(/C=N/NC(=O)c2cc(Cl)ccc2NC(=O)c2cccc(CSCc3ccco3)c2)cc1C` [Compound 683, N-[4-Chloro-2-(3,4-dimethyl-benzylidene-hydrazinocarbonyl)-phenyl]-3-(furan-2-ylmethylsulfanylmethyl)-benzamide], the IC50 was less than 3 µM.

`CCN(CCO)Cc1ccc(C(=O)Nc2ccc(Cl)cc2C(=O)N/N=C/c2ccc(Cl)c(C(F)(F)F)c2)cc1` [Compound 437, N-[4-Chloro-2-(4-chloro-3-trifluoromethyl-benzylidene-hydrazinocarbonyl)-phenyl]-4-{[ethyl-(2-hydroxy-ethyl)-amino]-methyl}-benzamide]: the half-inhibitory concentration (IC50) was less than 3 µM.

`CCN(CCO)Cc1cccc(C(=O)Nc2ccc(Cl)cc2C(=O)N/N=C/c2cccc(F)c2)c1` [Compound 422, N-[4-Chloro-2-(3-fluoro-benzylidene-hydrazinocarbonyl)-phenyl]-3-{[ethyl-(2-hydroxy-ethyl)-amino]-methyl}-benzamide]: the 50% inhibitory concentration (IC50) turned out to be 1.15 µM.

As to `Cc1csc(NC(=O)c2cccc(CN3CCC(N4CCCCC4)CC3)c2)c1C(=O)N/N=C/c1cccc(F)c1` [Compound 572, 3-[1,4′]Bipiperidinyl-1′-ylmethyl-N-[3-(3-fluoro-benzylidene-hydrazinocarbonyl)-4-methyl-thiophen-2-yl]-benzamide], the half-inhibitory concentration (IC50) was determined as 4.12 µM.

For the compound `COc1ccc(C(=O)Nc2ccc(Br)cc2C(=O)N/N=C/c2ccc(Cl)c(C(F)(F)F)c2)cc1OC` [Compound 87, N-[4-Bromo-2-(4-chloro-3-trifluoromethyl-benzylidene-hydrazinocarbonyl)-phenyl]-3,4-dimethoxy-benzamide], the 50% inhibitory concentration (IC50) came out at 0.29 µM.

Consider `COc1ccc(C(=O)Nc2ccc(C)cc2C(=O)N/N=C/c2ccc(F)cc2)cc1OC` [Compound 147, N-[2-(4-Fluoro-benzylidene-hydrazinocarbonyl)-4-methyl-phenyl]-3,4-dimethoxy-benzamide], for which the concentration for half-maximal inhibition (IC50) came out at 7.68 µM.

As for `CCOc1ccc(C(=O)Nc2ccc(Br)cc2C(=O)N/N=C/c2ccc(C)cc2)cc1` [Compound 503, N-[4-Bromo-2-(4-methyl-benzylidene-hydrazinocarbonyl)-phenyl]-4-ethoxy-benzamide], the IC50 came out at 10.3 µM.

In the case of `Cc1cc(/C=N/NC(=O)c2cc(Cl)ccc2NC(=O)c2cccnc2)oc1C` [Compound 222, N-[4-Chloro-2-(4,5-dimethyl-furan-2-ylmethylene-hydrazinocarbonyl)-phenyl]-nicotinamide], the 50% inhibitory concentration (IC50) stood at 8.86 µM.

For `CCN(CC)CCN(C)Cc1cccc(C(=O)Nc2scc(C)c2C(=O)N/N=C/c2ccc(Cl)c(C(F)(F)F)c2)c1` [Compound 567, N-[3-(4-Chloro-3-trifluoromethyl-benzylidene-hydrazinocarbonyl)-4-methyl-thiophen-2-yl]-3-{[(2-diethylamino-ethyl)-methyl-amino]-methyl}-benzamide], the half-inhibitory concentration (IC50) was less than 1 µM.

`Cc1ccc(/C=N/NC(=O)c2cc(N3CCCCC3)ccc2NC(=O)c2cccc(CN3CCC(O)CC3)c2)cc1` [Compound 871, 3-(4-Hydroxy-piperidin-1-ylmethyl)-N-[2-(4-methyl-benzylidene-hydrazinocarbonyl)-4-piperidin-1-yl-phenyl]-benzamide]: the IC50 came to 1 µM.

Turning to `O=C(Nc1ccc(OCCCCF)cc1C(=O)N/N=C/c1ccc(Cl)c(C(F)(F)F)c1)c1cccc(CSCCO)c1` [Compound 1054, N-[2-(4-Chloro-3-trifluoromethyl-benzylidene-hydrazinocarbonyl)-4-(4-fluoro-butoxy)-phenyl]-3-(2-hydroxy-ethylsulfanylmethyl)-benzamide], the IC50 was less than 1 µM.

For `COc1ccc(NC(=O)c2ccc(OC)c(OC)c2)c(C(=O)N/N=C/c2ccc(C)c(C)c2)c1` [Compound 145, N-[2-(3,4-Dimethyl-benzylidene-hydrazinocarbonyl)-4-methoxy-phenyl]-3,4-dimethoxy-benzamide], the half-maximal inhibitory concentration (IC50) turned out to be 3.82 µM.

`CCN(CC)CCN(C)Cc1cccc(C(=O)Nc2ccc(I)cc2C(=O)N/N=C/c2cccc(C)c2)c1` [Compound 474, 3-{[(2-Diethylamino-ethyl)-methyl-amino]-methyl}-N-[4-iodo-2-(3-methyl-benzylidene-hydrazinocarbonyl)-phenyl]-benzamide]: the half-maximal inhibitory concentration (IC50) was less than 3 µM.

In the case of `Cc1ccc(/C=N/NC(=O)c2cc(Cl)ccc2NC(=O)c2ccc(CN(C)CCO)cc2)cc1` [Compound 415, N-[4-Chloro-2-(4-methyl-benzylidene-hydrazinocarbonyl)-phenyl]-4-{[(2-hydroxy-ethyl)-methyl-amino]-methyl}-benzamide], the concentration for half-maximal inhibition (IC50) is less than 3 µM.

For the compound `Cc1cccc(/C=N/NC(=O)c2cc(Cl)ccc2NC(=O)c2cccc(CSCCS(=O)(=O)O)c2)c1` [Compound 692, 2-{3-[4-Chloro-2-(3-methyl-benzylidene-hydrazinocarbonyl)-phenylcarbamoyl]-benzylsulfanyl}-ethanesulfonic acid], the IC50 was determined as 99.4 µM.

Consider `O=C(Nc1ccc(Cl)cc1C(=O)N/N=C/c1cccc(O)c1)c1cccc(CN(CCO)CCO)c1` [Compound 410, 3-{[Bis-(2-hydroxy-ethyl)-amino]-methyl}-N-[4-chloro-2-(3-hydroxy-benzylidene-hydrazinocarbonyl)-phenyl]-benzamide], for which the IC50 turned out to be 4.05 µM.

Regarding `CC(O)CN(Cc1cccc(C(=O)Nc2ccc(OCC(O)CN3CCCCC3)cc2C(=O)N/N=C/c2ccc(Cl)c(C(F)(F)F)c2)c1)CC(C)O` (stereo not drawn) [Compound 950, 3-{[Bis-(2-hydroxy-propyl)-amino]-methyl}-N-[2-(4-chloro-3-trifluoromethyl-benzylidene-hydrazinocarbonyl)-4-(2-hydroxy-3-piperidin-1-yl-propoxy)-phenyl]-benzamide], the IC50 worked out at 9.08 µM.

As to `Cc1cccc(/C=N/NC(=O)c2cc(Cl)ccc2NC(=O)c2cccc(CSc3nnnn3CCN(C)C)c2)c1` [Compound 464, N-[4-Chloro-2-(3-methyl-benzylidene-hydrazinocarbonyl)-phenyl]-3-[1-(2-dimethylamino-ethyl)-1H-tetrazol-5-ylsulfanylmethyl]-benzamide], the IC50 turned out to be 5 µM.

Still in this experiment, the particulars now being: phosphate uptake, oocytes expressing rat NaPi-2b; 300 μM, determined from inhibition curve.
By inhibition is commonly meant the change of the read-out against control, counted positive when it falls. Compound `Cc1cccc(/C=N/NC(=O)c2cc(Br)ccc2NC(=O)c2ccc(CSc3cccc(F)c3)cc2)c1` [Compound 357, N-[4-Bromo-2-(3-methyl-benzylidene-hydrazinocarbonyl)-phenyl]-4-(3-fluoro-phenylsulfanylmethyl)-benzamide] had an inhibition at 300 µM of 65.8%.

Consider `CCN(CC)CCN(C)Cc1cccc(-c2nc3ccc(N4CCCN(C)CC4)cc3c(=O)n2/N=C/c2ccc(OC)cc2)c1` [Compound 933, 2-(3-{[(2-Diethylamino-ethyl)-methyl-amino]-methyl}-phenyl)-3-[(4-methoxy-benzylidene)-amino]-6-(4-methyl-[1,4]diazepan-1-yl)-3H-quinazolin-4-one], for which 300 µM produced 37.6% inhibition.
